# Results as given in ChEMBL document CHEMBL3393019, “Synthesis and evaluation of NS5A inhibitors containing diverse heteroaromatic cores” (Bioorg Med Chem Lett, 2015).
# Legend:
# [1] = system: Hepatitis C virus; assay: Antiviral activity against Hepatitis C virus genotype 1a infected in W11.8 cells assessed as decrease in NS5A expression in replicon cell after 4 days by luminescence based ELISA; format: functional, Hepacivirus hominis; conditions: subtype 1a, W11.8, 96 h
# [2] = system: Hepatitis C virus; assay: Antiviral activity against Hepatitis C virus genotype 1b infected in human Huh-5.2 cells assessed as decrease in HCV replicon RNA replication after 4 days by luciferase assay; format: functional, cell-based, Hepacivirus hominis; conditions: Huh-5-2, 96 h
# [3] = Cytotoxicity against human Huh7ET cells by [3H]thymidine incorporation assay; format: cell-based, Huh-7
# [4] = Clearance in iv dosed rat; format: ADME, organism-based; conditions: in vivo
# [5] = Half life in iv dosed rat; format: ADME, organism-based; conditions: in vivo
# [6] = Volume of distribution at steady state in iv dosed rat; format: ADME, organism-based; conditions: in vivo, read-out: Vdss
# [7] = AUC (0 to 8 hrs) in po dosed rat; format: ADME, organism-based; design: time < 8 hr, route oral; conditions: plasma
# [8] = Half life in po dosed rat; format: ADME, organism-based; conditions: in vivo
# [9] = Cmax in po dosed rat; format: ADME, organism-based; design: route oral; conditions: in vivo
# [10] = Oral bioavailability in rat; format: ADME, organism-based; conditions: in vivo
Structure (SMILES),EC50 [1] [nM],EC50 [2] [nM],clearance [4] [mL/min/kg],half-life [5] [h],Vd [6] [L/kg],AUC(0-t) at 8 h [7] [ng·h/mL],half-life [8] [h],Cmax [9] [ng/mL],bioavailability [10] [%],CC50 [3] [nM]
COC(=O)N[C@H](C(=O)N1C[C@@H](C)C[C@H]1c1nc2cc(-c3cc4sc(-c5cc6nc([C@@H]7C[C@H](C)CN7C(=O)[C@@H](NC(=O)OC)C(C)C)[nH]c6s5)cc4s3)ccc2[nH]1)C(C)C,0.011,0.004,,,,,,,,> 20000
COC(=O)N[C@H](C(=O)N1C[C@@H](C)C[C@H]1c1nc2cc(-c3ccc(-c4ccc5oc([C@@H]6C[C@H](C)CN6C(=O)[C@@H](NC(=O)OC)C(C)C)nc5c4)cc3)ccc2o1)C(C)C,> 2000,223,,,,,,,,7000
COC(=O)N[C@H](C(=O)N1C[C@@H](C)C[C@H]1c1nc(-c2ccc(-c3ccc(-c4ccc5nc([C@@H]6C[C@H](C)CN6C(=O)[C@@H](NC(=O)OC)C(C)C)oc5c4)cc3)cc2)c[nH]1)C(C)C,0.164,0.005,,,,,,,,> 20000
COC(=O)N[C@H](C(=O)N1C[C@@H](C)C[C@H]1c1ncc(-c2cc3sc(-c4ccc5[nH]c([C@@H]6C[C@H](C)CN6C(=O)[C@@H](NC(=O)OC)C(C)C)nc5c4)cc3s2)[nH]1)C(C)C,0.021,0.016,,,,,,,,> 20000
COC(=O)N[C@H](C(=O)N1C[C@@H](C)C[C@H]1c1ncc(-c2ccc(-c3cc4sc(-c5ccc6[nH]c([C@@H]7C[C@H](C)CN7C(=O)[C@@H](NC(=O)OC)C(C)C)nc6c5)cc4s3)cc2)[nH]1)C(C)C,0.008,0.006,8.1,3.5,1.6,281,17.2,0.01,8.4,> 20000
COC(=O)N[C@H](C(=O)N1C[C@@H](C)C[C@H]1c1nc(-c2ccc(-c3ccc(-c4ccc5oc([C@@H]6C[C@H](C)CN6C(=O)[C@@H](NC(=O)OC)C(C)C)nc5c4)cc3)cc2)c[nH]1)C(C)C,11,0.023,,,,,,,,> 20000
COC(=O)N[C@H](C(=O)N1C[C@@H](C)C[C@H]1c1nc2ccc(-c3ccc(-c4ccc5nc([C@@H]6C[C@H](C)CN6C(=O)[C@@H](NC(=O)OC)C(C)C)oc5c4)cc3)cc2o1)C(C)C,630,0.006,,,,,,,,7000
COC(=O)N[C@H](C(=O)N1C[C@@H](C)C[C@H]1c1nc2cc(-c3ccc(-c4ccc5oc([C@@H]6C[C@H](C)CN6C(=O)[C@@H](NC(=O)OC)C(C)C)nc5c4)cc3)ccc2[nH]1)C(C)C,58,0.017,,,,,,,,> 20000
COC(=O)N[C@H](C(=O)N1C[C@@H](C)C[C@H]1c1nc2cc(-c3ccc(-c4ccc5nc([C@@H]6C[C@H](C)CN6C(=O)[C@@H](NC(=O)OC)C(C)C)oc5c4)cc3)ccc2[nH]1)C(C)C,1.8,0.008,,,,,,,,> 20000

# More lines, main results first:
EC50 [1] [nM],EC50 [2] [nM],clearance [4] [mL/min/kg],half-life [5] [h],Vd [6] [L/kg],AUC(0-t) at 8 h [7] [ng·h/mL],half-life [8] [h],Cmax [9] [ng/mL],bioavailability [10] [%],Structure (SMILES),CC50 [3] [nM]
1.3,0.006,,,,,,,,COC(=O)N[C@H](C(=O)N1C[C@@H](C)C[C@H]1c1cc2cc(-c3cc4sc(-c5ccc6[nH]c([C@@H]7C[C@H](C)CN7C(=O)[C@@H](NC(=O)OC)C(C)C)nc6c5)cc4s3)ccc2[nH]1)C(C)C,> 20000
0.032,0.003,,,,,,,,COC(=O)N[C@H](C(=O)N1C[C@@H](C)C[C@H]1c1nc2cc(-c3cc4sc(-c5ccc6oc([C@@H]7C[C@H](C)CN7C(=O)[C@@H](NC(=O)OC)C(C)C)nc6c5)cc4s3)ccc2[nH]1)C(C)C,> 20000
0.006,0.004,,,,,,,,COC(=O)N[C@H](C(=O)N1C[C@@H](C)C[C@H]1c1cn2cc(-c3cc4sc(-c5ccc6[nH]c([C@@H]7C[C@H](C)CN7C(=O)[C@@H](NC(=O)OC)C(C)C)nc6c5)cc4s3)ccc2n1)C(C)C,8000
6.8,0.025,,,,,,,,COC(=O)N[C@H](C(=O)N1C[C@@H](C)C[C@H]1c1nc2cc(-c3cc4sc(-c5ccc6sc([C@@H]7C[C@H](C)CN7C(=O)[C@@H](NC(=O)OC)C(C)C)nc6c5)cc4s3)ccc2[nH]1)C(C)C,> 20000
> 2000,23,,,,,,,,COC(=O)N[C@H](C(=O)N1C[C@@H](C)C[C@H]1c1nc2cc(-c3cc4sc(-c5ccc6oc([C@@H]7C[C@H](C)CN7C(=O)[C@@H](NC(=O)OC)C(C)C)nc6c5)cc4s3)ccc2o1)C(C)C,> 20000
0.004,0.009,,,,,,,,COC(=O)N[C@H](C(=O)N1C[C@@H](C)C[C@H]1c1nc2cc(-c3cc4sc(-c5ccc6nc([C@@H]7C[C@H](C)CN7C(=O)[C@@H](NC(=O)OC)C(C)C)[nH]c6c5)cc4s3)ccc2[nH]1)C(C)C,> 20000
43,0.019,,,,,,,,COC(=O)N[C@H](C(=O)N1C[C@@H](C)C[C@H]1c1nc2ccc(-c3cc4sc(-c5ccc6nc([C@@H]7C[C@H](C)CN7C(=O)[C@@H](NC(=O)OC)C(C)C)oc6c5)cc4s3)cc2o1)C(C)C,> 20000
0.029,0.004,6.2,5.6,2.8,376,14.8,0.01,7.3,COC(=O)N[C@H](C(=O)N1C[C@@H](C)C[C@H]1c1nc2cc(-c3cc4sc(-c5ccc6nc([C@@H]7C[C@H](C)CN7C(=O)[C@@H](NC(=O)OC)C(C)C)oc6c5)cc4s3)ccc2[nH]1)C(C)C,> 20000
0.024,0.004,,,,,,,,COC(=O)N[C@H](C(=O)N1C[C@@H](C)C[C@H]1c1nc2cc(-c3cc4sc(-c5ccc6nc([C@@H]7C[C@H](C)CN7C(=O)[C@@H](NC(=O)OC)C(C)C)n(C)c6c5)cc4s3)ccc2[nH]1)C(C)C,> 20000
0.02,0.006,4.7,4.6,1.6,659,16.6,0.02,8.4,COC(=O)N[C@H](C(=O)N1C[C@@H](C)C[C@H]1c1cc2ccc(-c3cc4sc(-c5ccc6[nH]c([C@@H]7C[C@H](C)CN7C(=O)[C@@H](NC(=O)OC)C(C)C)nc6c5)cc4s3)cc2[nH]1)C(C)C,> 20000
